What was measured:
[1] = test system: ECHCG (Echinochloa crus-galli); test: Preemergence herbicidal evaluation; format: in vivo, (L.) Beau; details: rated 4-5 weeks after treatment
Method in brief: (§1)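 Applied before emergence as an aqueous acetone spray over seeded soil. Read-out: 0–9 visual rating covering plant stand, vigor, size, chlorosis, malformation and overall appearance compared with control, taken 4–5 weeks after spraying.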

SETVI (Setaria viridis) [2] = test: Preemergence herbicidal evaluation; format: in vivo, (L.) Beau; details: rated 4-5 weeks after treatment
Method in brief: as §1

CYPIR (Cyperus iria) = test: Flooded paddy, preemergence weed control; format: in vivo; details: rated 3-4 weeks after treatment, 0-9 rating scale
Method in brief: (§2)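 Plants were established from seed or propagating organs in flooded silt loam, with the water surface held 1.5 to 3 cm above the soil for the entire experiment. Injury was assessed visually against a control and given a 0-9 score.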

[3] = test system: GLXMAW (Soybean, Williams); test: Preemergence herbicidal evaluation; format: in vivo, Glycine max, (L.) Merr. cv Williams; details: rated 4-5 weeks after treatment
SETVI (Setaria viridis) [4] = test: Postemergence herbicidal evaluation; format: in vivo, (L.) Beau; details: postemergence
Method in brief: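 Seedlings grown about two weeks were sprayed with compound in 50/50 acetone/water containing 0.5% TWEEN 20, at about 0.0040 to 1.000 kg/ha via nozzle at 40 psi. Plants were kept under greenhouse conditions and visually rated on a 0-9 scale versus control four to five weeks after treatment; replicate tests averaged.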

[5] = test system: ECHORC (Echinochloa oryzoides); test: Flooded paddy, preemergence weed control; format: in vivo, Echinochloa oryzoides (Ard.) Fritsch.; details: rated 3-4 weeks after treatment, 0-9 rating scale
Method in brief: as §2

[6] = test system: MOOVA (Monochoria vaginalis); test: Flooded paddy, preemergence weed control; format: in vivo, Presl.; details: rated 3-4 weeks after treatment, 0-9 rating scale
Method in brief: as §2

ZEAMX (Corn, Field) = test: Preemergence herbicidal evaluation; format: in vivo, Zea mays, L.; details: rated 4-5 weeks after treatment
[7] = test system: IPOHE (Ipomoea hederacea); test: Postemergence herbicidal evaluation; format: in vivo, (L.) Jacq.; details: postemergence
Method in brief: (§3)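 Seedlings grown about two weeks in flats, sprayed, then kept under standard greenhouse care. Rated visually 4–5 weeks after treatment on a 0–9 scale (stand, vigour, malformation, size, chlorosis, overall appearance) relative to untreated control; repeat tests averaged.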

[8] = test system: TRZAWR (Wheat, Winter, cv Riband); test: Postemergence herbicidal evaluation; format: in vivo, Triticum aestivum; details: postemergence
Method in brief: as §3

| Compound | Preemergence herbicidal rating ECHCG ([1]; Rate 0.0620 kg/ha) | Preemergence herbicidal rating ECHCG ([1]; Rate 0.1250 kg/ha) | Preemergence herbicidal rating ECHCG ([1]; Rate 0.2500 kg/ha) | Preemergence herbicidal rating SETVI (SETVI (Setaria viridis) [2]; Rate 0.0620 kg/ha) | Preemergence herbicidal rating SETVI (SETVI (Setaria viridis) [2]; Rate 0.1250 kg/ha) | Preemergence herbicidal rating SETVI (SETVI (Setaria viridis) [2]; Rate 0.2500 kg/ha) | herbicidal rating, CYPIR (CYPIR (Cyperus iria); rate 0.0080 kg/ha) | herbicidal rating, CYPIR (CYPIR (Cyperus iria); rate 0.0320 kg/ha) | herbicidal rating, CYPIR (CYPIR (Cyperus iria); rate 0.1250 kg/ha) | Preemergence herbicidal rating GLXMAW ([3]; Rate 0.0620 kg/ha) | Preemergence herbicidal rating GLXMAW ([3]; Rate 0.1250 kg/ha) | Preemergence herbicidal rating GLXMAW ([3]; Rate 0.2500 kg/ha) | SETVI herbicidal rating (SETVI (Setaria viridis) [4]; rate 0.0320 kg/ha) | SETVI herbicidal rating (SETVI (Setaria viridis) [4]; rate 0.0620 kg/ha) | herbicidal rating, ECHORC ([5]; rate 0.0080 kg/ha) | herbicidal rating, ECHORC ([5]; rate 0.0320 kg/ha) | herbicidal rating, ECHORC ([5]; rate 0.1250 kg/ha) | herbicidal rating, MOOVA ([6]; rate 0.0080 kg/ha) | herbicidal rating, MOOVA ([6]; rate 0.0320 kg/ha) | herbicidal rating, MOOVA ([6]; rate 0.1250 kg/ha) | other results |
| --- | --- | --- | --- | --- | --- | --- | --- | --- | --- | --- | --- | --- | --- | --- | --- | --- | --- | --- | --- | --- | --- |
| Cn1c(C(F)(F)F)cc(=O)n(-c2ccc3snc(C4OC(=O)C(C)(C)O4)c3c2)c1=O (stereo not drawn) [Compound 71, 3-[3-(4,4-dimethyl-5-oxo-1,3-dioxolan-2-yl)-1,2-benzisothiazol-5-yl]-1-methyl-6-(trifluoromethyl)uracil] | 5.5 | 8.0 | 8.0 | 8.0 | 9.0 | 9.0 | 0.0 | 0.0 | 0.0 | 2.5 | 4.5 | 6.0 | 2.0 | 7.0 | 0.0 | 0.0 | 0.0 | 0.0 | 0.0 | 0.0 | Preemergence herbicidal rating ZEAMX (ZEAMX (Corn, Field); Rate 0.0620 kg/ha): 5.5; Preemergence herbicidal rating ZEAMX (ZEAMX (Corn, Field); Rate 0.1250 kg/ha): 8.0; Preemergence herbicidal rating ZEAMX (ZEAMX (Corn, Field); Rate 0.2500 kg/ha): 8.5; IPOHE herbicidal rating ([7]; rate 0.0320 kg/ha): 9.0; IPOHE herbicidal rating ([7]; rate 0.0620 kg/ha): 9.0; TRZAWR herbicidal rating ([8]; rate 0.0320 kg/ha): 3.0; TRZAWR herbicidal rating ([8]; rate 0.0620 kg/ha): 3.5 |
| Cn1c(C(F)(F)F)cc(=O)n(-c2ccc3snc(C4OCC(CCl)O4)c3c2)c1=O (stereo not drawn) [Compound 72, 3-[3-[4-(chloromethyl)-1,3-dioxolan-2-yl]-1,2-benzisothiazol-5-yl]-1-methyl-6-(trifluoromethyl)uracil] | 9.0 | 9.0 | 9.0 | 9.0 | 9.0 | 9.0 | 0.0 | 3.0 | 9.0 | 6.5 | 9.0 | 9.0 | 8.0 | 8.0 | 5.0 | 9.0 | 9.0 | 0.0 | 9.0 | 9.0 | Preemergence herbicidal rating ZEAMX (ZEAMX (Corn, Field); Rate 0.0620 kg/ha): 8.0; Preemergence herbicidal rating ZEAMX (ZEAMX (Corn, Field); Rate 0.1250 kg/ha): 8.5; Preemergence herbicidal rating ZEAMX (ZEAMX (Corn, Field); Rate 0.2500 kg/ha): 9.0; IPOHE herbicidal rating ([7]; rate 0.0320 kg/ha): 9.0; IPOHE herbicidal rating ([7]; rate 0.0620 kg/ha): 9.0; TRZAWR herbicidal rating ([8]; rate 0.0320 kg/ha): 3.5; TRZAWR herbicidal rating ([8]; rate 0.0620 kg/ha): 4.5 |
| Cn1c(C(F)(F)F)cc(=O)n(-c2ccc3snc(C4OCC(CO)O4)c3c2)c1=O (stereo not drawn) [Compound 73, 3-[3-[4-(hydroxymethyl)-1,3-dioxolan-2-yl]-1,2-benzisothiazol-5-yl]-1-methyl-6-(trifluoromethyl)uracil] | 7.5 | 9.0 | 9.0 | 9.0 | 9.0 | 9.0 | 0.0 | 0.0 | 9.0 | 4.0 | 7.0 | 8.0 | 4.0 | 8.0 | 0.0 | 0.0 | 7.0 | 0.0 | 0.0 | 9.0 | Preemergence herbicidal rating ZEAMX (ZEAMX (Corn, Field); Rate 0.0620 kg/ha): 6.5; Preemergence herbicidal rating ZEAMX (ZEAMX (Corn, Field); Rate 0.1250 kg/ha): 9.0; Preemergence herbicidal rating ZEAMX (ZEAMX (Corn, Field); Rate 0.2500 kg/ha): 9.0; IPOHE herbicidal rating ([7]; rate 0.0320 kg/ha): 9.0; IPOHE herbicidal rating ([7]; rate 0.0620 kg/ha): 9.0; TRZAWR herbicidal rating ([8]; rate 0.0320 kg/ha): 3.5; TRZAWR herbicidal rating ([8]; rate 0.0620 kg/ha): 4.0 |

From patent US6706663B2, “Herbicidal 3-heterocyclic substituted benzisothiazole and benzisoxazole compounds” (Wyeth, priority 2000, dated 2004)
